Experimental data from US8841285B2, “Potent immunosuppressive agents, derivatives and uses” (priority 2002, dated 2014).
Where two headings read alike, the source gives them in different places.

Key:
eIF4AI = target: T1, eIF4AI (Homo sapiens, UniProt P60842); assay: RNA-dependent ATPase activity of recombinant 6XHis-eIF4AI; assay type: biochemical; settings: saturating poly(U) RNA
T1 construct: The entire ORF of human eIF4AI was ligated in-frame into the BamHI and HindIII sites of the pET-28a expression vector; 6XHis (N); made in house; host or cells: E. coli BL21(DE3)
T1 sequence (P60842 whole entry): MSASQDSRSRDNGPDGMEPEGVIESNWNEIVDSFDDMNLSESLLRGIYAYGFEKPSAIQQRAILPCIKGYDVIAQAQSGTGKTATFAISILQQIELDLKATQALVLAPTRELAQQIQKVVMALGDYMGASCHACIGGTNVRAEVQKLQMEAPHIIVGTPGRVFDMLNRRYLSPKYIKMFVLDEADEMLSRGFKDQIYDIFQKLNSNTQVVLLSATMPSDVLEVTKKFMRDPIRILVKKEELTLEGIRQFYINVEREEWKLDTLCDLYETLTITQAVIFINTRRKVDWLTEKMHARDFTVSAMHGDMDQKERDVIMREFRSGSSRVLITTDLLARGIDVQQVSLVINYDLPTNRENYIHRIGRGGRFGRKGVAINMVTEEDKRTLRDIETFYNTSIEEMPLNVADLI
Procedure: Recombinant proteins. The entire ORF of human eIF4AI was ligated in-frame into the BamHI and HindIII sites of the pET-28a expression vector after PCR amplification from HeLa cells. Protein was produced in BL21(DE3) E. coli cultured in LB medium by induction with 1 mM IPTG for 6 h at 37° C. Cells were lysed by sonication and protein was purified using Ni-NTA resin as described by the manufacturer. For pET(His6-eIF4B), induction conditions were for 72 h at 16° C. Purification included a 1 ml Heparin column with a linear KCl gradient (50-500 mM).
ATPase and Helicase. ATPase activity was performed as described (Korneeva et al., 2005) with minor modifications. Reactions contained 2.5% DMSO, 6XHis-eIF4AI concentration was 0.56 μM, and reaction time was 10 min at 37° C. in buffer: 20 mM Tris-HCl, pH 7.5, 0.5 mM MgCl2, 100 mM KCl, 2 mM DTT, 0.1% (v/v) Tween 20, 10% (v/v) glycerol, 1 mg/ml BSA, and reactions were supplemented with 3-5 μCi of [γ-^32P]-ATP (6000 Ci/mmol). Saturating poly(U) concentrations were 1239 μM (nucleotides/20). Released phosphate was visualized on 15% native TBE polyacrylamide gels followed by autoradiography of wet gels (30 min exposure). Film was aligned with gels and spots were excised and ^32P levels were quantified by scintillation counting. Km and Vmax were determined by curve fitting. […]

[1] = test system: cap-dependent translation; assay: in vitro translation in RRL, bicistronic reporter, cap-dependent cistron; assay type: biochemical, rabbit
Procedure: (§1) In vitro Translation and Transcription. pSP/(CAG)33/FF/HCV/Ren·pA51 and pKS/FF/EMC/Ren were linearized by BamHI, then purified by phenol:chloroform extraction and ethanol precipitation, and dissolved in water. pSP/(CAG)33/FF/HCV/Ren·A51 and pKS/FF/EMC/Ren were individually transcribed using a large scale RNA production system in the presence of m7Gppp cap analog followed by incubation with DNase as described by the manufacturer. Resulting RNA was purified using a kit as described by the manufacturer. Translation was performed using a rabbit reticulocyte lysate system as per instructions. Briefly, 200 ng of purified RNA was combined in a 20 μl reaction containing 10 μl RRL, 0.2 μl each of minus Met and minus Leu amino acid mixtures, 70 mM KCl, 2 mM DTT, 1× translation buffer, and 10 units of RNasin. Compounds or DMSO were added to a final DMSO concentration of 2%. Reactions were incubated at 30° C. for 1.5 h, then 5 μl of the reaction mixture was assayed for luciferase activity as per instructions of luciferas reporter assay system.

[2] = test system: HCV IRES-mediated translation; assay: in vitro translation in RRL, HCV IRES cistron; assay type: biochemical, rabbit; settings: 100 nM
Procedure: as §1

eIF4A-eIF4G = target: T2, eIF4A-eIF4G (Homo sapiens, UniProt P60842); assay: 6XHis-eIF4AI pulldown, eIF4A-eIF4G interaction; assay type: binding; settings: HeLa lysate; PatA at 100 μM
T2 construct: The entire ORF of human eIF4AI was ligated in-frame into the BamHI and HindIII sites of the pET-28a expression vector; made in house; host or cells: bait from E. coli BL21(DE3); eIF4G endogenous in HeLa lysate
T2 sequence (P60842 whole entry): as above
Procedure: 6XHis-eIF4AI pulldown, Co-immunoprecipitation, and m^7GTP-Sepharose pulldown. For 6XHis-eIF4AI pulldowns, HeLa lysates were prepared as described above. Equal aliquots (200 μl) of lysate were incubated with PatA analogs or DMSO and 8.5 μg of 6XHis-eIF4AI overnight at 4° C., followed by addition of Ni-NTA resin for 1 h, then resin was washed with 3 ml buffer, and boiled in SDS-PAGE loading buffer followed by SDS-PAGE and immunoblotting with indicated antibodies. For co-immunoprecipitation, 293T cells with vector control or pcDNA3-Flag-4B lysates were prepared by pipetting in: 20 mM HEPES, pH 7.4, 100 mM KCl, 0.5% Triton-X-100, 20% glycerol, protease inhibitor and 15 μg/ml RNAse A followed by clearing at 13 000 g (10 min). For DMDA-PatA treated samples, lysis and wash buffers also contained 100 nM DMDA-PatA. Anti-Flag antibody was incubated overnight at 4° C., followed by addition of Protein G beads for 4 h. Beads were washed 3× with 500 μl buffer, boiled in SDS-PAGE loading buffer followed by SDS-PAGE and immunoblotting. m^7GTP-Sepharose was performed as described (Yoder-Hill et al., 1993) with modifications. 30 μl RRL was incubated with DMSO or DMDA-PatA at room temperature for 30 min, diluted with buffer supplemented with DMSO or DMDA-PatA (20 nM), then combined with 50 μl beads for 3 h at 4° C. followed by 4 washes with 1 ml buffer. […]

skin graft = settings: cited from earlier work

Row | Compound | effect on Km ATP (eIF4AI) | effect on kcat (eIF4AI) | inhibition of cap-dependent translation ([1]; 100 nM, HCV IRES bicistronic reporter) | IC50 ([1]; EMCV IRES bicistronic reporter, read-out: IC50, cap-dependent initiation) [nM] | IC50 ([1]; HCV IRES bicistronic reporter, read-out: IC50, cap-dependent translation) [nM] | inhibition of HCV IRES-mediated (eIF4A-independent) translation [2] | effect on eIF4A-eIF4G interaction (eIF4A-eIF4G) | activity in skin graft rejection assay (skin graft; all doses) | toxicity (skin graft; at high doses) [%] | survival period of the skin graft (skin graft; mouse skin graft rejection) [days] | toxicity (skin graft; other dose levels)
1 | CC(/C=C/C(C)=C/[C@@H]1Cc2nc(cs2)CCCCC(=O)O[C@@H](C)C/C(C)=C/C=C\C(=O)O1)=C\CN(C)C [compound 3, desmethyl, desamino-pateamine A] | significant decrease | marginally increased |  |  |  |  |  |  |  |  | 
2 | CC(/C=C/C(C)=C/[C@@H]1Cc2nc(cs2)[C@@H](C)C[C@@H](N)CC(=O)O[C@@H](C)C/C(C)=C/C=C\C(=O)O1)=C\CN(C)C [Pat A (1), Pateamine A] |  |  | nearly completely inhibited | ~88 | ~20 | not inhibited | disrupted | All doses were active | 17 | 15 | no toxicity
